The source of these data is patent US5760048A, “Alpha-mercaptoacrylic acid derivatives having calpain inhibitory activity” (Warner-Lambert Company, priority 1996, dated 1998).

Entries after “also recorded” stand apart in the source; their conditions may differ. Like-named read-outs stand apart in the source and are kept apart here. Square brackets hold non-standard residues; d marks the D form. Peptide text beside a SMILES is read from it. Nle = CCCC[C@H](N)C(=O)O

Test [1] concerns smooth muscle cells. Particulars: cited from earlier work.
In test [2] the test system is restenosis. To be noted: in vivo; cited from earlier work.
The target of test [3] is T1, calpain I (Homo sapiens, UniProt P07384).
T1 sequence (P07384 1-714): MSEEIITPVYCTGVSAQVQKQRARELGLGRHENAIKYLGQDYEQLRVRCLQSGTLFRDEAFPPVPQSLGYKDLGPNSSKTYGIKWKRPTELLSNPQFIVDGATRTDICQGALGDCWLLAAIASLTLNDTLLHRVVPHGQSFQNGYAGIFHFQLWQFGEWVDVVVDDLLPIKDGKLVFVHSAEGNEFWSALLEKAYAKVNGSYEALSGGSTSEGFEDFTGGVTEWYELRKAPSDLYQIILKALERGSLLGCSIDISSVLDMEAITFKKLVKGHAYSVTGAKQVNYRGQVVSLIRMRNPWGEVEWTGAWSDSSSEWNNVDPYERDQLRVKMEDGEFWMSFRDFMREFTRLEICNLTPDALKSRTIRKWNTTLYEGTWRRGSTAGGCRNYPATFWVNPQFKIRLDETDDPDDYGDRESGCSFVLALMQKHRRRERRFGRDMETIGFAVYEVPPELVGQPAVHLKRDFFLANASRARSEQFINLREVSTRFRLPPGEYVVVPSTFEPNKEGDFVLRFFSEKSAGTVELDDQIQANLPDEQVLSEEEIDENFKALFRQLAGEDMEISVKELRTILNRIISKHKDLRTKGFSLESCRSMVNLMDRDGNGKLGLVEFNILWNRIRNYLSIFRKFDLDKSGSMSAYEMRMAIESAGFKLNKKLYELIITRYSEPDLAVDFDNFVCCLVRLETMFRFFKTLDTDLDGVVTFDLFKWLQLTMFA
T1 sequence (P04632 1-268 partner): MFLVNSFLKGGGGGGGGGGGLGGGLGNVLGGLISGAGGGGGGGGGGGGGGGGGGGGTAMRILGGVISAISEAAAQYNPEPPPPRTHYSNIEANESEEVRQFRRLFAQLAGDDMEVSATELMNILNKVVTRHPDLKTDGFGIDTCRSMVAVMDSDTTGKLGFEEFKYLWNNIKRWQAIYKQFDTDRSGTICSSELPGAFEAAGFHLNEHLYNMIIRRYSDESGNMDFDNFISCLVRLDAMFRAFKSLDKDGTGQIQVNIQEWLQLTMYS
Description: Calpain inhibition after treatment with rabbit liver esterase. The test is classed as biochemical. Details: casein substrate. To be noted: FIG. I. The method, then: Calpain I was purified from human erythrocytes as described by Wang K. K. W., Roufogalis B. D., Villalobo A., Arch Biochem Biophys 1988;267:317-327.Calpain activity was assayed in a 96-well microplate format (Buroker-Kilgore M., Wang K. K. W., Anal Biochem 1993;208:387-392). In 250 μL of reaction mixture, substrate casein (0.5 mg/mL) was incubated with 0.01 unit (80-120 ng) calpain I, 20 mM dithiothreitol (DTT), 50 mM Tris-HCl (pH 7.4 at 25° C.), and 4 mM CaCl2 at 25° C. for 60 minutes. Two 100-μL aliquots were taken for Coomassie blue binding analysis to quantify the remaining casein.
Various concentrations of the compound of Example 6 (250 nM to 2.5 mM) were pretreated with 0.2 unit rabbit liver esterase (Sigma E9636) in 50 μL containing 50 mM Tris-HCl (pH 7.4 at 25° C.), 5 mM DTT at 25° C. for 60 minutes. The mixture was then tested for calpain inhibition with the calpain assay described above.
The esterase presumably hydrolyzed the only ester bond in the molecule, producing the free acid compound which is identical to the compound of Example 3.

The target in test [4] is T1, calpain I. Description: Assay of Calpain Activity (casein substrate, microplate, Coomassie blue). Format: biochemical. Details: Calpain I was purified from human erythrocytes; from tissue; host or cells: human erythrocytes. The method, then:
In 250 μL of reaction mixture, substrate casein (0.5 mg/mL) was incubated with 0.01 unit (80-120 ng) calpain I, 20 mM dithiothreitol (DTT), 50 mM Tris-HCl (pH 7.4 at 25° C.), and 4 mM CaCl2 at 25° C. for 60 minutes. Two 100-μL aliquots were taken for Coomassie blue binding analysis to quantify the remaining casein.
Calpain I was assayed as described (α-mercaptoacrylic acid). […] Inhibition of these proteases are presented as IC50.

Test [5] deals with T2, papain (Carica papaya, UniProt P00784).
T2 construct: purchased Sigma P3125; host or cells: papaya latex
T2 sequence (P00784 134-345): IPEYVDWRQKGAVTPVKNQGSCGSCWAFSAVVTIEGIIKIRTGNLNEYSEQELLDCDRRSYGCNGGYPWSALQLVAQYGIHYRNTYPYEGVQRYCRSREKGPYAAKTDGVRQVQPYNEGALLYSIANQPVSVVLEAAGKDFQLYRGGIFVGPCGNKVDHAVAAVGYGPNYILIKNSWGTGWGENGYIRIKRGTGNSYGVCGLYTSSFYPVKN
As to the kind of experiment: Selectivity: papain protease assay (casein substrate). The test is classed as biochemical. Particulars: Table II; read-out: Inhibitory Activity of Thiol-Acrylates, Papain (IC50). The method, then:
(§1) Calpain I was assayed as described (α-mercaptoacrylic acid). Ten to 20 ng papain (papaya latex, Sigma, P3125), 1.25 μg trypsin (bovine pancreas, Sigma, T8003), and 5 μg thermolysin (Bacillus thermoproteolyticus, Sigma, P1512) were assayed using 0.5 mg/mL casein as substrate in the microplate format (250 μL reaction volume), essentially as described by Buroker-Kilgore M., Wang K. K. W., Anal Biochem 1993;208:387-392. Inhibition of these proteases are presented as IC50.

Test [6] concerns the target T3, trypsin (Bos taurus, UniProt P00760).
T3 construct: purchased Sigma T8003; host or cells: bovine pancreas
T3 sequence (P00760 24-246): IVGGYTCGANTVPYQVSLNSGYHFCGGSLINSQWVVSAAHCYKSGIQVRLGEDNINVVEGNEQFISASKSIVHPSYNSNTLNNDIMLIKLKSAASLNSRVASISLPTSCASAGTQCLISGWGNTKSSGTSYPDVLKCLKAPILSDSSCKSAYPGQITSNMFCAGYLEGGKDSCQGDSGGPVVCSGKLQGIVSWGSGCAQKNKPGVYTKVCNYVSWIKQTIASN
Description: Selectivity: trypsin protease assay (casein substrate). The test is classed as biochemical, bovine. To be noted: Table II; read-out: Inhibitory Activity of Thiol-Acrylates, Trypsin (IC50). The method, then: as §1

Test [7] deals with T4, thermolysin (Bacillus thermoproteolyticus, UniProt P00800).
T4 construct: purchased Sigma P1512; host or cells: Bacillus thermoproteolyticus
Description: Selectivity: thermolysin protease assay (casein substrate). Format: biochemical. The method, then: as §1

The test system of test [8] is Fetal rat cortical cell cultures. As to the kind of experiment: Assay of Lactate Dehydrogenase (LDH): NMDA-induced LDH release. Format: cell-based. To be noted: 500 μM NMDA; 200 μM calpain inhibiting compound; FIG. II. The method, then:
Seventeen-day-old cultures were pretreated with 200 μM calpain inhibiting compound (when added) for 1 hour before treatment of 500 μM N-methyl-D-aspartate (NMDA) for 30 minutes (in the absence or the presence of the compound).

In test [9] the test system is spectrin breakdown in rat cortical cell cultures. Description: Spectrin Breakdown Measurement (immunoblot). The test is classed as cell-based. To be noted: NMDA-treated cortical cells, 4-hour post-NMDA. The method, then:
Rat cortical cell cultures were treated with NMDA in the absence or presence of calpain inhibiting compounds as described in "Assay of LDH" above. At the end of the 4-hour post-NMDA incubation, cells were lysed with 300 μL buffer containing 20 mM Tris-HCL (pH 7.4 at 4° C.), 1% SDS, 5 mM EGTA, 5 mM EDTA, 1 mM DTT, and various protease inhibitors. Total cellular protein was precipitated by 100 μL of 100% trichloroacetic acid. The samples were centrifuged and the pelleted protein solubilized with 50 μl of 3M Tris base. […] The blots were then probed with rabbit antibrain spectrin antibody (primary antibody) followed by alkaline phosphatase-conjugated goat antirabbit immunoglobulin G antibody (secondary antibody). […] The SBP were quantified by densitometry (BioRad Model 620).

In test [10] the target is T1, calpain I. As to the kind of experiment: Casein Breakdown by calpain I (SDS-PAGE). Format: biochemical. Also noted: casein substrate. To be noted: 30 μM compound, 0.8 nM calpain I, all time points up to 120 minutes. The method, then: Casein (15 μM) was incubated with 0.8 nM calpain I, 15 mM DTT, 45 mM Tris-HCl (pH 7.4 at 25° C.) and in the presence or the absence of compound Example 3 (30 μM) for up to 120 minutes. Aliquots of the samples were taken at several time points and subjected to SDS-polyacrylamide gel electrophoresis (SDS-PAGE) as described by Laemmli U. K., Nature 1970;[…]. Casein and its fragments were visualized by Coomassie G250 staining of the gel.

Test [11] deals with myocardiac infraction. Particulars: dogs, coronary reperfusion after acute myocardiac infraction; cited from earlier work.
Setting [12] is: Table I, 4 mM CaCl2, pH 7.4, 25° C., 60 minutes, read-out: Inhibitory Activity Against Human Calpain I IC50.

T4 sequence (P00800 233-548): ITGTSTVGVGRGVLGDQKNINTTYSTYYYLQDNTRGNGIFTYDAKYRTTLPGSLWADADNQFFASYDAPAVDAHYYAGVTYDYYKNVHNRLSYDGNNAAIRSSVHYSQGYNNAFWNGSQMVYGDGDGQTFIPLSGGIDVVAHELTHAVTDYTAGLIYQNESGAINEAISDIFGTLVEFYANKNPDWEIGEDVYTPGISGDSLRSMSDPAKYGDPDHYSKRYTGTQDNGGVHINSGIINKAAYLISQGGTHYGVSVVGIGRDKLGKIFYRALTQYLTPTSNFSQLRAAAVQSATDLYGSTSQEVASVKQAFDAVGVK

Turning to `CCCC[C@@H](C=O)NC(=O)[C@H](CC(C)C)NC(=O)[C@H](CC(C)C)NC(C)=O` [calpain inhibitor I] (Ac-Leu-Leu-[Nle]-aldehyde), in test [1], the “proliferation and migration of smooth muscle cells to the neoinitimal layer” value was “controlling proliferation and migration of smooth muscle cells”. Further, the inhibition of restenosis result in [2] is reported as “inhibit restenosis”.
A word on the IC50: it is the concentration needed to halve the response being measured. For `CCOC(=O)/C(S)=C/c1ccc2ccccc2c1` [Example 6, Ethyl 2-Propenoic Acid, (Z)-2-mercapto-3-(2-naphthalenyl)-, Ethyl Ester], the “inhibition of calpain upon preincubation with esterase (in words)” value in test [3] (0.2 unit rabbit liver esterase, 60 minutes) is recorded as “shows activity only after it is hydrolyzed by cellular esterase; also recorded: strong inhibition on calpain”. Besides, the “inhibition of calpain I without esterase (in words)” value in test [3] (as high as 500 μM, no esterase) is recorded as “did not inhibit calpain I”. In addition, the IC50 in test [4] (setting [12]) is more than 500 µM.
On to `O=C(O)/C(S)=C/c1ccc2ccccc2c1` [Example 3, (Z)-2-Propenoic Acid, 2-mercapto-3-(7-naphthalenyl)], for which the IC50 in test [5] is more than 200 µM; in test [6], more than 200 µM; in test [7] it was 394 µM; in [4] (setting [12]), 2.6 µM; in test [4] (Table II (selectivity), read-out: Inhibitory Activity of Thiol-Acrylates, Calpain (IC50)) it was 2.4 µM. Also, the “block of NMDA-induced LDH release (in words)” value in test [8] is listed as “partially blocked”. In addition, the “spectrin breakdown product (SBP) formation, 150 kDa and 145 kDa (in words)” value in [9] was “partially blocked SBP formation”. The “degradation of casein by calpain I (in words)” value in test [10] was “almost completely blocked the degradation of casein at all time points”.
As to `CC(C)CCNC(=O)[C@H](CC(C)C)NC(=O)[C@H]1O[C@@H]1C(=O)O` [Example E64c], in test [11], the size of infract entry is “significantly reduce the size of infract”.
